Laboratory results published in patent US9663508B2, “Biaryl acyl-sulfonamide compounds as sodium channel inhibitors” (AMGEN INC., priority 2013, dated 2017).
pIC50: −log10 of the molar value.

The molecules below were run against human Nav1.7 (Homo sapiens (Human), UniProt Q15858) (assay: Nav 1.7 in vitro PatchXpress (PX) assay). Details: not given.
Chain of human Nav1.7 (Q15858 whole entry): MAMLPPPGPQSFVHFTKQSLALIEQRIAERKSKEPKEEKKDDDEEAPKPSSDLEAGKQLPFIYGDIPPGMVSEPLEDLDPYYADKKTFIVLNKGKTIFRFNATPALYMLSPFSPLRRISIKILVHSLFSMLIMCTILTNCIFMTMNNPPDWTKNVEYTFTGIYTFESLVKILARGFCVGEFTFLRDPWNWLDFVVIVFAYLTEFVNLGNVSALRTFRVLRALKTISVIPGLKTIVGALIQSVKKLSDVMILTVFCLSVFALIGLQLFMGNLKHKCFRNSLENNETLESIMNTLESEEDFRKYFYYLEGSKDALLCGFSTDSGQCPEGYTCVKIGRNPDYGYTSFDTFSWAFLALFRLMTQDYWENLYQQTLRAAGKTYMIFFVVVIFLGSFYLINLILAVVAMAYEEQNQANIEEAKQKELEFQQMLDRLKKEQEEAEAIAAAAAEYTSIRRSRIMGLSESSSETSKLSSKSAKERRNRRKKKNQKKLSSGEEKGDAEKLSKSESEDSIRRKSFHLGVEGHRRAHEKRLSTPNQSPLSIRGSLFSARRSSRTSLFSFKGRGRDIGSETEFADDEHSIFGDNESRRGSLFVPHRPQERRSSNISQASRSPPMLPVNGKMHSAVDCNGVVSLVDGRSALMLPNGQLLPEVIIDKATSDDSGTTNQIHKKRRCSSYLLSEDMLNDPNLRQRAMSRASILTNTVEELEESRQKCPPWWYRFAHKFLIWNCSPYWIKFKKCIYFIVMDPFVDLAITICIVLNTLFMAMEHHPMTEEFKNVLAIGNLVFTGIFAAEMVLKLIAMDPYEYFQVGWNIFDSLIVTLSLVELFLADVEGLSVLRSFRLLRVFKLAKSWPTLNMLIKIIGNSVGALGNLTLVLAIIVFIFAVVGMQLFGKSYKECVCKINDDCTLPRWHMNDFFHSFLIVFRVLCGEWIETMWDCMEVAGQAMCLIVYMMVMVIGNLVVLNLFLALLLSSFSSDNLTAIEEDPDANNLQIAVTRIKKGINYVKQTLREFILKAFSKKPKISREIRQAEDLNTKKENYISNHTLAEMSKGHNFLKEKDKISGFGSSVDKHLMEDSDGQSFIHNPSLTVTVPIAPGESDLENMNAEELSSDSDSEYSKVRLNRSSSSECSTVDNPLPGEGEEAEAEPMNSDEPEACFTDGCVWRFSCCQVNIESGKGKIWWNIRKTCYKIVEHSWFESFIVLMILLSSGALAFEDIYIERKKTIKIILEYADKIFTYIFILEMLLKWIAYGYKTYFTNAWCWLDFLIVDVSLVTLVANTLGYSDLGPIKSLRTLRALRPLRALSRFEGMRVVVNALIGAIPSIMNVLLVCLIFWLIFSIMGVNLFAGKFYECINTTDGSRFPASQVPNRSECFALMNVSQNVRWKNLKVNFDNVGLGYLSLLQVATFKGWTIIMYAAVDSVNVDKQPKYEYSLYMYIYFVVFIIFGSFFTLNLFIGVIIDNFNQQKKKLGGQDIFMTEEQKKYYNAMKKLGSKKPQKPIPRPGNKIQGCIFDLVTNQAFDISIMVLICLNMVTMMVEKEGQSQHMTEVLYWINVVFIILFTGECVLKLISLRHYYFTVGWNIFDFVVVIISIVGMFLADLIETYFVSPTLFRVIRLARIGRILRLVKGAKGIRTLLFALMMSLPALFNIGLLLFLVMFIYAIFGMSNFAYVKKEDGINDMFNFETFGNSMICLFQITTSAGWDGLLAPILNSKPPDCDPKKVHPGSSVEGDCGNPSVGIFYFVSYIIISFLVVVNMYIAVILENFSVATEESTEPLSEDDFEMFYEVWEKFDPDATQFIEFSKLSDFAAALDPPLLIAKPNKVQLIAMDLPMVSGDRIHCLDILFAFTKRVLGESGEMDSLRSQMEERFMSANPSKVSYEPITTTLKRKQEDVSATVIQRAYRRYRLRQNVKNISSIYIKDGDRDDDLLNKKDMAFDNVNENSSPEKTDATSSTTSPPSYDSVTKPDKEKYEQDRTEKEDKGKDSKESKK
Format: cell-based
Work on `COc1cc(C(=O)NS(C)(=O)=O)ccc1-c1cnc(Oc2ccc(Cl)c(C(F)(F)F)c2)c(Cl)c1` [Example 370, 4-(5-chloro-6-(4-chloro-3-(trifluoromethyl)phenoxy)-3-pyridinyl)-3-methoxy-N-(methylsulfonyl)benzamide] yielded a pIC50 of 7.24.
Molecule `Cc1cc(C(=O)NS(C)(=O)=O)c(F)cc1-c1cnc(N2CCC[C@@H]2c2ccccc2C(F)(F)F)c(Cl)c1` [Example 659, 4-(5-chloro-6-((2R)-2-(2-(trifluoromethyl)phenyl)-1-pyrrolidinyl)-3-pyridinyl)-2-fluoro-5-methyl-N-(methylsulfonyl)benzamide, 4-(5-chloro-6-((2S)-2-(2-(trifluoromethyl)phenyl)-1-pyrrolidinyl)-3-pyridinyl)-2-fluoro-5-methyl-N-(methylsulfonyl)benzamide] has a pIC50 of 6.97.
`CS(=O)(=O)NC(=O)c1cc(F)c(-c2cnc(Oc3ccc(Cl)c(Cl)c3)c(Cl)c2)cc1F` [Example 570, 4-(5-chloro-6-(3,4-dichlorophenoxy)-3-pyridinyl)-2,5-difluoro-N-(methylsulfonyl)benzamide] was tested, and the pIC50 was 7.21.
`COc1ncc(Oc2ncc(-c3ccc(C(=O)NS(C)(=O)=O)cc3OC(F)F)cc2Cl)cc1Cl` [Example 436, 4-(5-chloro-6-((5-chloro-6-methoxy-3-pyridinyl)oxy)-3-pyridinyl)-3-(difluoromethoxy)-N-(methylsulfonyl)benzamide] gave a pIC50 of 7.04.
`COc1cc(C(=O)NS(C)(=O)=O)ccc1-c1cnc(Oc2c(Cl)cc(C)cc2Cl)c(C#N)c1` [Example 693, 4-(5-cyano-6-(2,6-dichloro-4-methylphenoxy)-3-pyridinyl)-3-methoxy-N-(methylsulfonyl)benzamide] was tested, and the pIC50 was 7.66.
With `CS(=O)(=O)NC(=O)c1ccc(-c2cnc(Oc3cc(Cl)cc(Cl)c3)c(Cl)c2)c(OC(F)F)c1` [Example 461, 4-(5-chloro-6-(3,5-dichlorophenoxy)-3-pyridinyl)-3-(difluoromethoxy)-N-(methylsulfonyl)benzamide] the pIC50 was 7.47.
`COc1cc(C(=O)NS(C)(=O)=O)c(F)cc1-c1cnc(OC2CCC2)c(Cl)c1` [Example 702, 4-(5-chloro-6-(cyclobutyloxy)-3-pyridinyl)-2-fluoro-5-methoxy-N-(methylsulfonyl)benzamide] gave a pIC50 of 7.16.
Work on `Cc1cc(C(=O)NS(C)(=O)=O)c(F)cc1-c1cnc(Oc2cccc(F)c2F)c(Cl)c1` [Example 604, 4-(5-chloro-6-(2,3-difluorophenoxy)-3-pyridinyl)-2-fluoro-5-methyl-N-(methylsulfonyl)benzamide] yielded a pIC50 of 6.96.
`Cc1cc(C(=O)NS(C)(=O)=O)c(F)cc1-c1cnc(O[C@H](C)c2ccccc2C(F)(F)F)c(Cl)c1` [Example 688, 4-(5-chloro-6-((1R)-1-(2-(trifluoromethyl)phenyl)ethoxy)-3-pyridinyl)-2-fluoro-5-methyl-N-(methylsulfonyl)benzamide, 4-(5-chloro-6-((1S)-1-(2-(trifluoromethyl)phenyl)ethoxy)-3-pyridinyl)-2-fluoro-5-methyl-N-(methylsulfonyl)benzamide] gave a pIC50 of 7.06.
For `Cc1cc(C(=O)NS(C)(=O)=O)c(F)cc1-c1cnc(Oc2cccc(C(F)(F)F)c2C)c(Cl)c1` [Example 677, 4-(5-chloro-6-(2-methyl-3-(trifluoromethyl)phenoxy)-3-pyridinyl)-2-fluoro-5-methyl-N-(methylsulfonyl)benzamide], the pIC50 was 7.08.
`COc1cc(C(=O)NS(C)(=O)=O)ccc1-c1cnc(Oc2c(F)ccc(F)c2F)c(Cl)c1` [Example 362, 4-(5-chloro-6-(2,3,6-trifluorophenoxy)-3-pyridinyl)-3-methoxy-N-(methylsulfonyl)benzamide] was tested, and the pIC50 was 7.20.
`Cc1ccc(Cl)c(Oc2ncc(-c3ccc(C(=O)NS(C)(=O)=O)cc3OC(F)F)cc2Cl)c1` [Example 462, 4-(5-chloro-6-(2-chloro-5-methylphenoxy)-3-pyridinyl)-3-(difluoromethoxy)-N-(methylsulfonyl)benzamide] was tested, and the pIC50 was 7.17.

Same assay, conditions: in-vitro Nav 1.7 PX data
Molecule `Cc1cc(C(=O)NS(C)(=O)=O)c(F)cc1-c1ccc(OCC(F)(F)F)cc1` [Example 810, 5-fluoro-2-methyl-N-(methylsulfonyl)-4′-(2,2,2-trifluoroethoxy)-4-biphenylcarboxamide] has a pIC50 of 5.40.
`COc1cc(C(=O)NS(C)(=O)=O)c(F)cc1-c1cnc(NCC2CCC(C)(C)CC2)c(Cl)c1` [Example 721, 4-(5-chloro-6-(((4,4-dimethylcyclohexyl)methyl)amino)-3-pyridinyl)-2-fluoro-5-methoxy-N-(methylsulfonyl)benzamide] was tested, and the pIC50 was 7.06.
`COc1cc(C(=O)NS(C)(=O)=O)c(F)cc1-c1cnc(Oc2c(F)ccc(Cl)c2F)c(Cl)c1` [Example 744, 4-(5-chloro-6-(3-chloro-2,6-difluorophenoxy)-3-pyridinyl)-2-fluoro-5-methoxy-N-(methylsulfonyl)benzamide] was tested, and the pIC50 was 7.17.
`CS(=O)(=O)NC(=O)c1cc(OC(F)F)c(-c2cnc(OC3CCC3)c(Cl)c2)cc1F` [Example 781, 4-(5-chloro-6-(cyclobutyloxy)-3-pyridinyl)-5-(difluoromethoxy)-2-fluoro-N-(methylsulfonyl)benzamide] gave a pIC50 of 6.84.
For `COc1cc(C(=O)NS(C)(=O)=O)c(F)cc1-c1cnc(OC2(C(F)(F)F)CCC2)c(Cl)c1` [Example 734, 4-(5-chloro-6-((1-(trifluoromethyl)cyclobutyl)oxy)-3-pyridinyl)-2-fluoro-5-methoxy-N-(methylsulfonyl)benzamide], the pIC50 was 7.23.
`COc1cc(C(=O)NS(C)(=O)=O)c(F)cc1-c1cnc(Oc2c(C)cccc2Cl)c(Cl)c1` [Example 748, 4-(5-chloro-6-(2-chloro-6-methylphenoxy)-3-pyridinyl)-2-fluoro-5-methoxy-N-(methylsulfonyl)benzamide] was tested, and the pIC50 was 7.12.
`Cc1cc(C(=O)NS(C)(=O)=O)c(F)cc1-c1cccc(OC(F)(F)C(F)F)c1` [Example 812, 5-fluoro-2-methyl-N-(methylsulfonyl)-3′-(1,1,2,2-tetrafluoroethoxy)-4-biphenylcarboxamide] gave a pIC50 of 5.23.
Molecule `COc1cc(C(=O)NS(C)(=O)=O)c(F)cc1-c1cnc(O[C@H](C)Cc2ccccc2)c(Cl)c1` [Example 756, 4-(5-chloro-6-((1R)-1-methyl-2-phenylethoxy)-3-pyridinyl)-2-fluoro-5-methoxy-N-(methylsulfonyl)benzamide] has a pIC50 of 7.26.
`Cc1cc(Cl)cc(Cl)c1Oc1ncc(-c2cc(F)c(C(=O)NS(C)(=O)=O)cc2F)cc1C#N` [Example 787, 4-(5-cyano-6-(2,4-dichloro-6-methylphenoxy)pyridin-3-yl)-2,5-difluoro-N-(methylsulfonyl)benzamide] gave a pIC50 of 7.10.
With `Cc1cc(C(=O)NS(C)(=O)=O)c(F)cc1-c1ccc(CC2CC2)c(Cl)c1` [Example 813, 3′-chloro-4′-(cyclopropylmethyl)-5-fluoro-2-methyl-N-(methylsulfonyl)-4-biphenylcarboxamide] the pIC50 was 6.85.
`COc1cc(C(=O)NS(C)(=O)=O)c(F)cc1-c1cnc(O[C@H]2C[C@H](C)C2)c(Cl)c1` [Example 735, 4-(5-chloro-6-((trans-3-methylcyclobutyl)oxy)-3-pyridinyl)-2-fluoro-5-methoxy-N-(methylsulfonyl)benzamide] showed a pIC50 of 7.23.
In the case of `CC[C@@H](Oc1ncc(-c2cc(F)c(C(=O)NS(C)(=O)=O)cc2OC)cc1Cl)C(F)(F)F` [Example 732, 4-(5-chloro-6-(((1R)-1-(trifluoromethyl)propyl)oxy)-3-pyridinyl)-2-fluoro-5-methoxy-N-(methylsulfonyl)benzamide, 4-(5-chloro-6-(((1S)-1-(trifluoromethyl)propyl)oxy)-3-pyridinyl)-2-fluoro-5-methoxy-N-(methylsulfonyl)benzamide], the pIC50 was 6.98.
Molecule `Cc1cc(C(=O)NS(C)(=O)=O)c(F)cc1-c1ccc(OC(F)(F)C(F)F)cc1` [Example 811, 5-fluoro-2-methyl-N-(methylsulfonyl)-4′-(1,1,2,2-tetrafluoroethoxy)-4-biphenylcarboxamide] has a pIC50 of 5.80.
`COc1cc(C(=O)NS(C)(=O)=O)c(F)cc1-c1cnc(O[C@@H]2CC[C@@H]2C)c(Cl)c1` [Example 770, 4-(5-chloro-6-(((1R,2S)-2-methylcyclobutyl)oxy)-3-pyridinyl)-2-fluoro-5-methoxy-N-(methylsulfonyl)benzamide] showed a pIC50 of 6.96.
Molecule `COc1cc(C(=O)NS(C)(=O)=O)c(F)cc1-c1cnc(Oc2cc(F)cc(F)c2)c(Cl)c1` [Example 740, 4-(5-chloro-6-(3,5-difluorophenoxy)-3-pyridinyl)-2-fluoro-5-methoxy-N-(methylsulfonyl)benzamide] has a pIC50 of 7.06.
`CC[C@H](Oc1ncc(-c2cc(F)c(C(=O)NS(C)(=O)=O)cc2OC)cc1Cl)C(F)(F)F` [Example 768, 4-(5-chloro-6-(((1S)-1-(trifluoromethyl)propyl)oxy)-3-pyridinyl)-2-fluoro-5-methoxy-N-(methylsulfonyl)benzamide] was tested, and the pIC50 was 7.02.
`CC(C)COc1ncc(-c2cc(F)c(C(=O)NS(C)(=O)=O)cc2F)cc1-c1cc(F)cc(F)c1` [Example 838, 4-(5-(3,5-difluorophenyl)-6-(2-methylpropoxy)-3-pyridinyl)-2,5-difluoro-N-(methylsulfonyl)benzamide] was tested, and the pIC50 was 6.19.
Work on `CS(=O)(=O)NC(=O)c1cc(OC(F)F)c(-c2cnc(OCc3ccc(Cl)cc3)c(Cl)c2)cc1F` [Example 786, 4-(5-chloro-6-((4-chlorobenzyl)oxy)-3-pyridinyl)-5-(difluoromethoxy)-2-fluoro-N-(methylsulfonyl)benzamide] yielded a pIC50 of 7.26.
Molecule `Cc1cc(C(=O)NS(C)(=O)=O)c(F)cc1-c1ccc(C(F)(F)F)c(Cl)c1` [Example 807, 3′-chloro-5-fluoro-2-methyl-N-(methylsulfonyl)-4′-(trifluoromethyl)-4-biphenylcarboxamide] has a pIC50 of 6.38.
`COc1cc(C(=O)NS(C)(=O)=O)c(F)cc1-c1cnc(Oc2cc(Cl)c(Cl)cc2Cl)c(Cl)c1` [Example 739, 4-(5-chloro-6-(2,4,5-trichlorophenoxy)-3-pyridinyl)-2-fluoro-5-methoxy-N-(methylsulfonyl)benzamide] showed a pIC50 of 7.29.
`COc1cc(C(=O)NS(C)(=O)=O)ccc1-c1cnc(Oc2cc(Cl)cc(Cl)c2)c(C=O)c1` [Example 822, 4-(6-(3,5-Dichlorophenoxy)-5-Formylpyridin-3-yl)-3-Methoxy-N-(Methylsulfonyl)Benzamide] gave a pIC50 of 6.82.
